Tested on: cat with Gran Mal seizures
Assay: Taurox SB added to food of a cat with Gran Mal seizures
Assay type: in vivo
Conditions: cat Misty, before Taurox SB
From the text: The homeopathic remedy may be included in food. For example, Misty, a cat who had been accepted by a rescue shelter, suffered with severe, potentially life-threatening Gran Mal seizures about three times a day and almost every other day. […] Overall, she averaged a few a month while being treated.
The homeopathic remedy may also be included in food. […] This invention applies to all foods from treats treated with the homeopathic on site, to the bulk supplied food while making it, to massive watering systems used to water livestock or irrigate fields. It applies to all forms of life including human, animal and plant.

With Bromide salts the “benefit on seizures of earlier medication” value was “without significant benefits”.

— US8815948B2, “High volume and alternative methods of delivering homeopathic remedies” (Dovetail Technologies, Inc., priority 2004, dated 2014)
